Assay results reported in ChEMBL document CHEMBL1201862, “PubChem BioAssay data set” (2004).
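Assay format: 96-well plates, 48-hour exposure. GI50 marks 50% less growth.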 Calls of active or inactive are those of the source. Cut-off read from the data, not from the text of the source: active = GI50 up to about 1.1 µM and inactive = higher.

Legend:
Experiment in all cases: DTP human tumour cell line panel, 48 h
[1] = tested on: DU-145
[2] = tested on: OVCAR-8
[3] = tested on: SF-539
[4] = tested on: NCI-H226
[5] = tested on: SNB-75
[6] = tested on: MDA-MB-435
[7] = tested on: OVCAR-3
[8] = tested on: HCC 2998
[9] = tested on: NCI-H522
[10] = tested on: SF-268
[11] = tested on: UACC-257
[12] = tested on: 786-0
[13] = tested on: NCI/ADR-RES
[14] = tested on: U-251
[15] = tested on: SF-295
[16] = tested on: ACHN
[17] = tested on: KM12
[18] = tested on: K562
[19] = tested on: PC-3
[20] = tested on: MOLT-4
[21] = tested on: MDA-N
[22] = tested on: Hs-578T
[23] = tested on: Malme-3M
[24] = tested on: CAKI-1
[25] = tested on: HOP-62
[26] = tested on: COLO 205
[27] = tested on: SK-MEL-2
[28] = tested on: A498
[29] = tested on: OVCAR-5
[30] = tested on: HCT-116
[31] = tested on: RPMI-8226
[32] = tested on: HCT-15
[33] = tested on: TK-10
[34] = tested on: HOP-92
[35] = tested on: NCI-H23
[36] = tested on: SR
[37] = tested on: HT-29
[38] = tested on: M14
[39] = tested on: HL-60
[40] = tested on: SK-MEL-5
[41] = tested on: T47D
[42] = tested on: RXF 393
[43] = tested on: SK-OV-3
[44] = tested on: CCRF-CEM
[45] = tested on: SK-MEL-28
[46] = tested on: SW-620
[47] = tested on: LOX IMVI
[48] = tested on: NCI-H460
[49] = tested on: OVCAR-4
[50] = tested on: UACC-62
[51] = tested on: MCF7
[52] = tested on: IGROV-1
[53] = tested on: UO-31
[54] = tested on: A549
[55] = tested on: BT-549
[56] = tested on: EKVX
[57] = tested on: MDA-MB-231
[58] = tested on: SN12C

Measured: GI50

COc1cccc(/N=C/c2cc(OC)c(OC)c(OC)c2)c1
inactive: [1] > 100 µM | [2] > 100 µM | [3] > 100 µM | [4] > 54.8 µM | [5] > 100 µM | [6] 18.8 µM | [8] > 88.9 µM | [9] > 100 µM | [10] > 100 µM | [11] > 100 µM | [12] > 100 µM | [13] > 100 µM | [14] > 100 µM | [15] 69.8 µM | [16] 20.8 µM | [17] 33.2 µM | [18] 3.58 µM | [19] > 100 µM | [20] > 72.1 µM | [21] 25.8 µM | [22] > 100 µM | [23] > 100 µM | [24] > 100 µM | [25] 94 µM | [26] 17.8 µM | [27] > 85.1 µM | [28] > 100 µM | [29] > 53.2 µM | [30] > 100 µM | [31] > 100 µM | [33] > 100 µM | [34] > 100 µM | [35] > 100 µM | [36] > 23.1 µM | [37] 91.2 µM | [38] 36.2 µM | [39] > 100 µM | [40] 16.8 µM | [41] 64.3 µM | [42] 78.7 µM | [43] > 100 µM | [44] > 100 µM | [45] > 75.7 µM | [46] > 100 µM | [47] > 37.2 µM | [48] 64.9 µM | [49] > 79.6 µM | [50] 1.75 µM | [51] 56.9 µM | [52] > 100 µM | [53] > 23 µM | [54] > 100 µM | [55] 72.6 µM | [56] > 86.7 µM | [57] > 100 µM | [58] > 100 µM
active: [7] 1 µM
56.1 µM: [32]

O=S1(=O)c2ccccc2C(Nc2ccccc2)N1c1ccccc1 (centres undefined)
48 µM: [32]
inactive: [1] > 100 µM | [2] > 100 µM | [3] > 100 µM | [4] > 100 µM | [5] > 100 µM | [6] 45.1 µM | [7] > 100 µM | [8] > 100 µM | [9] 24.7 µM | [10] > 100 µM | [11] > 100 µM | [12] > 100 µM | [13] 45 µM | [14] 61 µM | [15] > 100 µM | [16] > 100 µM | [17] 72.3 µM | [18] 27.6 µM | [19] > 100 µM | [20] 50.4 µM | [21] > 100 µM | [22] > 100 µM | [23] > 100 µM | [24] > 100 µM | [25] > 100 µM | [27] 98.6 µM | [28] > 100 µM | [29] > 100 µM | [30] > 100 µM | [31] > 100 µM | [33] > 100 µM | [34] 38.5 µM | [35] > 100 µM | [36] 83.8 µM | [37] > 100 µM | [39] 85.7 µM | [40] > 100 µM | [41] 24.5 µM | [42] > 100 µM | [43] > 100 µM | [44] 63.4 µM | [45] > 100 µM | [46] > 100 µM | [47] > 100 µM | [48] 72.9 µM | [49] 67.6 µM | [50] > 100 µM | [51] > 100 µM | [52] 36.9 µM | [53] 68.1 µM | [54] 56.8 µM | [55] 58.9 µM | [56] > 100 µM | [57] > 100 µM | [58] > 100 µM
